From US20250320140A1, “USE OF MEDIUM CHAIN PERACIDS FOR BIOFILM INHIBITION IN INDUSTRIAL RECIRCULATING WATER SYSTEMS” (ECOLAB USA INC., priority 2017, published 2025)

Assay: Solubility of sulfonated peracids at pH 4
Assay type: physicochemical
Conditions: pH of 4

solubility: about 1.3%
Structure (SMILES): O=C(CCCCCCCCCCS(=O)(=O)O)OO [11-sulfoundecane peroxoic acid]
